Read-outs that look alike come from different tables or passages of the source.
Experiments:
SARS-CoV-2-NLuc = assay: microbe, parasite or virus in culture; format: cell-based, SARS Coronavirus 2
[1] = molecular target: recombinant SARS-CoV-2 Main protease (Mpro) (Severe acute respiratory syndrome coronavirus 2 (2019-nCoV) (SARS-CoV-2), UniProt P0DTD1); assay: Cov Mpro Biochemical IC50 Assay; settings: read-out: MPro IC50
[2] = Severe acute respiratory syndrome coronavirus, 48 h, read-out: MPro EC50
[3] = recombinant SARS-CoV-2 Mpro 7.5 nM, fluorogenic peptide substrate 40 μM
[4] = Severe acute respiratory syndrome coronavirus, 48 h; read-out: MPro EC50
[5] = recombinant SARS-CoV-2 Mpro, fluorogenic peptide substrate

Structure (SMILES)	EC50 (SARS-CoV-2-NLuc; [2]) [nM]	IC50 [1, 3] [nM]	EC50 (SARS-CoV-2-NLuc; [4]) [nM]	IC50 [1, 5] [nM]	EC50 (SARS-CoV-2-NLuc; read-out: MPro EC50) [nM]
COc1cc(-c2cc3c(s2)c(=O)n(-c2cncc4ccccc24)c(=O)n3[C@H]2C[C@H](C#N)C2)c(Cl)cc1F [Example 695]	45.9	16.2	–	–	–
COc1ccc(Cl)c(-c2cc3[nH]c(=O)n(-c4cncc5cccc(F)c45)c(=O)c3s2)c1 [Example 445]	22	5.71	–	–	–
COc1cnc(C#N)c(-c2cc3c(s2)c(=O)n(-c2cncc(C)c2)c(=O)n3CCC#N)c1 [Example 887]	–	10.4	65.4	–	–
CCn1ncc2cncc(-n3c(=O)[nH]c4cc(-c5cc(OC)c(F)cc5Cl)sc4c3=O)c21 [Example 732]	15.7	15.1	–	–	–
O=c1[nH]c2cc(-c3ccccc3Cl)sc2c(=O)n1-c1cncc2ccc(N3C[C@@H]4C[C@H]3CO4)cc12 [Example 393]	12.2	9	–	–	–
CC(C)c1cncc(-n2c(=O)[nH]c3cc(-c4ccccc4Cl)sc3c2=O)c1 [Example 376]	47300	–	–	43300	–
COc1cc(-c2cc3c(s2)c(=O)n(-c2cncc4cccnc24)c(=O)n3CC2(C#N)CC2)c(Cl)cc1F [Example 709]	2.09	6.21	–	–	–
Cn1c(C(F)(F)F)nc2cncc(-n3c(=O)c4sc(-c5ccc(F)cc5Cl)cc4n(CCC#N)c3=O)c21 [Example 857]	–	161	348	–	–
Cc1ncccc1-c1ccc2c(=O)n(-c3cncc4ccccc34)c(=O)[nH]c2c1 [Example 63]	8440	–	–	5850	–
O=c1[nH]c2cc(-c3ccccc3Cl)ccc2c(=O)n1-c1cccnc1 [Example 122]	3910	–	–	1010	–
O=c1c2sc(-c3ccccc3Cl)cc2n(CC2CCCC2)c(=O)n1-c1cncc2ccccc12 [Example 4]	892	–	–	792	–
O=c1[nH]c2cc(-c3c(O)cccc3Cl)sc2c(=O)n1-c1cncc2ccccc12 [Example 8]	108	–	–	31.3	–
COc1cc(-c2cc3c(s2)c(=O)n(-c2nncc4ccccc24)c(=O)n3CCC#N)c(Cl)cc1F [Example 929]	2.76	5.72	–	–	–
COc1cc(-c2cc3c(s2)c(=O)n(-c2cncc(F)c2)c(=O)n3CCC#N)c(Cl)cc1F [Example 986]	4.39	2.37	–	–	–
COc1cc(-c2cc3c(s2)c(=O)n(-c2cncc4ccccc24)c(=O)n3CCC#N)c(Cl)cc1Cl [Example 832]	7.16	7.71	–	–	–
COc1cnc(Cl)c(-c2cc3c(s2)c(=O)n(-c2cncc4nn(C)c(C)c24)c(=O)n3CCC#N)c1 [Example 1086]	413	24.6	–	–	–
COc1cc(-c2cc3c(s2)c(=O)n(-c2cncc4nnn(C5CC5)c24)c(=O)n3CCC#N)c(Cl)cc1F [Example 939]	30.3	11	–	–	–
N#CCCn1c(=O)n(-c2cncc(F)c2)c(=O)c2sc(-c3ccc(F)cc3Cl)cc21 [Example 788]	52.2	35.6	–	–	–
Cn1cc2ccc(-c3cc4[nH]c(=O)n(-c5cncc6ccccc56)c(=O)c4s3)cc2n1 [Example 10]	20000	–	–	13700	–
Cc1nc2cncc(-n3c(=O)c4sc(-c5ccccc5C#N)cc4n(CCC#N)c3=O)c2n1C [Example 854]	> 1000	93.3	–	–	–
CC(C)(C)c1cncc(-n2c(=O)[nH]c3cc(-c4ccccc4Cl)ccc3c2=O)c1 [Example 579]	–	> 50000	42600	–	–
COc1cc(-c2cc3[nH]c(=O)n(-c4cncc5cccc(C)c45)c(=O)c3s2)c(Cl)cc1F [Example 560]	6.1	< 2.54	–	–	–
CS(=O)(=O)c1ccc(-c2cccc(Cl)c2-c2ccc3c(=O)n(-c4cncc5ccccc45)c(=O)[nH]c3c2)cn1 [Example 204]	49	–	–	11.7	–
O=c1[nH]c2cc(-c3ccccc3C3CC3)sc2c(=O)n1-c1cncc2ccccc12 [Example 16]	182	–	–	164	–
Cc1c(-c2cccc(Cl)c2-c2ccc3c(=O)n(-c4cncc5ccccc45)c(=O)[nH]c3c2)cnn1C1CCNCC1 [Example 473]	1810	17.5	–	–	–
COc1cncc(-c2cccc(Cl)c2-c2ccc3c(=O)n(-c4cncc5ccccc45)c(=O)[nH]c3c2)c1 [Example 199]	25.4	–	–	19.3	–

Structure (SMILES)	EC50 (SARS-CoV-2-NLuc; [2]) [nM]	IC50 [1, 3] [nM]	EC50 (SARS-CoV-2-NLuc; [4]) [nM]	IC50 [1, 5] [nM]	EC50 (SARS-CoV-2-NLuc; read-out: MPro EC50) [nM]
COc1ccc(Cl)c(-c2cc3[nH]c(=O)n(-c4cncc5nc(C67CC(F)(C6)C7)n(C)c45)c(=O)c3s2)c1 [Example 436]	–	164	489	–	–
CCn1cc(-c2cccc(Cl)c2-c2ccc3c(=O)n(-c4cncc5ccccc45)c(=O)[nH]c3c2)c(C)n1 [Example 275]	17.9	–	–	23.3	–
COc1cc(-c2cc3c(s2)c(=O)n(-c2cncc4nc(C)n(C5CC5)c24)c(=O)n3CCC#N)c(Cl)cc1F [Example 990]	14.1	4.1	–	–	–
COc1cc(C#N)c(-c2cc3c(s2)c(=O)n(-c2cncc4cnn(C)c24)c(=O)n3CCC#N)cc1F [Example 795]	86.7	20	–	–	–
O=c1[nH]c2cc(-c3ccccc3Cl)ccc2c(=O)n1-c1cncc2cccnc12 [Example 450]	211	127	–	–	–
Cc1ncc(-c2cccc(Cl)c2-c2ccc3c(=O)n(-c4cncc5ccccc45)c(=O)[nH]c3c2)n1C [Example 352]	120	–	–	41.8	–
COc1cc2c(=O)n(-c3cncc4ccccc34)c(=O)[nH]c2cc1-c1ccccc1Cl [Example 83]	122	–	–	109	–
Cn1cnc(Cn2c(=O)n(-c3cncc4ccccc34)c(=O)c3sc(-c4ccccc4Cl)cc32)n1 [Example 153, 6-(2-chlorophenyl)-3-(4-isoquinolyl)-1-[(1-methyl-1,2,4-triazol-3-yl)methyl]thieno[3,2-d]pyrimidine-2,4-dione]	66.1	–	–	18.5	–
Cc1cc(C)c(-c2cc3[nH]c(=O)n(-c4cncc5ccccc45)c(=O)c3s2)cc1C#N [Example 648]	188	99.5	–	–	–
Cn1cc2ccc(-c3cccc(Cl)c3-c3ccc4c(=O)n(-c5cncc6ccccc56)c(=O)[nH]c4c3)cc2n1 [Example 248]	40.1	–	–	87.2	–
Cc1nn(C)cc1-c1cccc(Cl)c1-c1cc2[nH]c(=O)n(-c3cncc4ccccc34)c(=O)c2s1 [Example 518, 6-[2-chloro-6-(1,3-dimethylpyrazol-4-yl)phenyl]-3-(4-isoquinolyl)-1H-thieno[3,2-d]pyrimidine-2,4-dione]	5.49	9.15	–	–	–
Cn1ncc2cncc(-n3c(=O)c4sc(-c5cc(F)ccc5Cl)cc4n(CC#N)c3=O)c21 [Example 664]	11.4	5.24	–	–	–
COc1cc(-c2cc3c(s2)c(=O)n(-c2cncc4[nH]c(=O)n(C)c24)c(=O)n3CCC#N)c(Cl)cc1F [Example 687]	148	4.92	–	–	–
COc1cnc(Cl)c(-c2cc3c(s2)c(=O)n(-c2cncc4ccccc24)c(=O)n3CC2(C#N)CC2)c1 [Example 759]	4.85	5.39	–	–	–
Cc1noc(C)c1-c1cc2c(s1)c(=O)n(-c1cncc3cnn(C)c13)c(=O)n2CCC#N [Example 930]	> 1000	541	–	–	–
COc1cc(-c2cc3[nH]c(=O)n(-c4cncc5cnn(C)c45)c(=O)c3s2)c(Cl)cc1F [Example 505, 6-(2-chloro-4-fluoro-5-methoxyphenyl)-3-(1-methyl-1H-pyrazolo[4,3-c]pyridin-7-yl)thieno[3,2-d]pyrimidine-2,4(1H,3H)-dione]	9.97	5.45	–	–	–
O=c1[nH]c2cc(-c3ccccc3Cl)sc2c(=O)n1-c1cncc2c1OCCC2 [Example 588]	47.4	14.8	–	–	–
COc1cc(-c2cc3c(s2)c(=O)n(-c2cncc4cnn(C)c24)c(=O)n3CCC#N)c(Cl)cc1F (single isomer, unassigned) [Example 645, 3-[6-(2-chloro-4-fluoro-5-methoxy-phenyl)-3-(1-methylpyrazolo[4,3-c]pyridin-7-yl)-2,4-dioxo-thieno[3,2-d]pyrimidin-1-yl]propanenitrile]	–	43.5	–	–	36
COc1cc(-c2cc3[nH]c(=O)n(-c4cncc5c4c(C)cn5C)c(=O)c3s2)c(Cl)cc1F [Example 706]	6.53	5.93	–	–	–
COc1cc(-c2cc3[nH]c(=O)n(-c4cncc5cccc(F)c45)c(=O)c3s2)c(Cl)cc1F [Example 444, 6-(2-chloro-4-fluoro-5-methoxyphenyl)-3-(5-fluoroisoquinolin-4-yl)thieno[3,2-d]pyrimidine-2,4(1H,3H)-dione]	8.86	5.45	–	–	–
COc1ccc2cncc(-n3c(=O)[nH]c4cc(-c5ccccc5Cl)sc4c3=O)c2c1 (single isomer, unassigned) [Example 441, 6-(2-chlorophenyl)-3-(6-methoxyisoquinolin-4-yl)thieno[3,2-d]pyrimidine-2,4(1H,3H)-dione]	–	109	–	–	239
Cc1cc(-c2cccc(Cl)c2-c2ccc3c(=O)n(-c4cncc5ccccc45)c(=O)[nH]c3c2)cn2nnnc12 [Example 245]	20.4	–	–	13.2	–
Cn1nnc2cncc(-n3c(=O)c4sc(-c5ccc(F)cc5Cl)cc4n(CCC#N)c3=O)c21 [Example 773, 3-[6-(2-chloro-4-fluoro-phenyl)-3-(1-methyltriazolo[4,5-c]pyridin-7-yl)-2,4-dioxo-thieno[3,2-d]pyrimidin-1-yl]propanenitrile]	67.5	25.5	–	–	–
COc1cccc(C#N)c1-c1cc2[nH]c(=O)n(-c3cncc4cnn(C)c34)c(=O)c2s1 [Example 839, 3-methoxy-2-(3-(1-methyl-1H-pyrazolo[4,3-c]pyridin-7-yl)-2,4-dioxo-1,2,3,4-tetrahydrothieno[3,2-d]pyrimidin-6-yl)benzonitrile]	463	91.3	–	–	–
CC(=O)N1CC2(C1)CN(c1ccc3cncc(-n4c(=O)[nH]c5cc(-c6ccccc6Cl)sc5c4=O)c3c1)C2 [Example 422]	–	7.75	134	–	–
